# Where two headings read alike, the source gives them in different places.
# Experiments:
# [1] = Competition kinetics of APC and APF with boronate reference for HOCl; format: physicochemical; conditions: FLBA (for APC) or CBA (for APF) 25 µM as reference, HOCl 5 µM, pH 7.4
# Procedure: The rate constants of 1.8 × 10^4 M^−1s^−1 and 1.1 × 10^4 M^−1s^−1 were obtained for CBA and FLBA, respectively, which are typical values reported for this class of probes (Fig. 4a,b)[29],[36],[38],[45]. […] The highest rate constant was obtained for the NBD-TM probe which was equal to 1.0 × 10^7 M^−1s^−1. This rate constant was calculated using a second order rate constant of 1.8 × 10^4 M^−1s^−1 for the reference compound (CBA). The determined value of the rate constant for NBD-TM is consistent with the reaction rate constants reported for other thioethers with HOCl[41],[46].
# (§1) Supplementary Figure S1. (a) Decrease of COH fluorescence in the incubation mixtures containing […]
# (§2) in the presence of catalase (100 U/ml, black); in the absence of NaCl (green); in the absence of NaCl but in the presence of catalase (dark blue); in the absence of MPO (light blue); in th e absence of MPO but in the presence of catalase (pink). ( b), (c) same as (a) but instead of COH, incubation mixtures contained fluorescein and NBD -TSO, respectively.
# Supplementary Figure S2. The relationship used to determine the rate constant between APF and HOCl (a), or […] and HOCl (b), according to the competition kinetic approach. The solid lines in the panel (a) and (b) represent the linear fittings to the equation […]
# (2kFLBA+HOCl = 1,11 × 104 M-1s-1). […] The concentrations of COH and fluorescein were determined by LC/MS. […]
# [2] = target: T1, MPO (Homo sapiens, UniProt P05164); assay: Z' parameter of the MPO/H2O2/Cl- assays; design: MPO from human neutrophils was obtained from Athens Research and Technology; purchased Athens Research and Technology (Athens, GA); host or cells: human neutrophils (natural source, donor material); conditions: both end-point (20 min) and kinetic (initial rates over 5 min) measurements
# T1 sequence (P05164 279-745 limits assumed): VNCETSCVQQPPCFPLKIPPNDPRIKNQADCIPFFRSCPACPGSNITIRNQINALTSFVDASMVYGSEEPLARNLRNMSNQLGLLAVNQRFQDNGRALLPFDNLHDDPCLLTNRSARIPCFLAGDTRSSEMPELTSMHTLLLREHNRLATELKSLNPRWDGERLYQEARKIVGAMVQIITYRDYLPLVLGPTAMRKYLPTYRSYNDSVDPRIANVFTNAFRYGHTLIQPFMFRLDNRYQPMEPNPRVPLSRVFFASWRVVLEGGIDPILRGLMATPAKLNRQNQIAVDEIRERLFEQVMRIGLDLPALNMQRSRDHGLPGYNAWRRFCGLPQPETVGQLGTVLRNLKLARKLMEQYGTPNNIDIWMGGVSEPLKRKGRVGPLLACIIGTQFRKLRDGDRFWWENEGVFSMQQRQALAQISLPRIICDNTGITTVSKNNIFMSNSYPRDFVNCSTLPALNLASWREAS
# T1 sequence (P05164 165-273 limits assumed): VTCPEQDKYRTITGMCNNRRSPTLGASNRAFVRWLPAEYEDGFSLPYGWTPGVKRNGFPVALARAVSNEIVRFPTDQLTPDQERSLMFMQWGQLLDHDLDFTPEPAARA
# Procedure: The Z’ parameter is a measure of the assay quality in terms of its applicability to screen for bioactive compounds in cell-free or cell-based systems. The Z’ value of 0.5 or higher is generally accepted for the application of any assay for high throughput screening (HTS) of large chemical libraries. For the probes tested, the Z’ parameter was calculated on the basis of end-point measurements (fluorescence measured at a specific time of incubation) and kinetic measurements (rates of fluorescence increase), according to the Eq. 5. In the end-point measurements the Z’ values were calculated for the time of incubation equal to 20 min. To calculate the kinetic Z’ the initial rates of fluorescent product formation over 5 min were used. […] The lowest Z’ values around 0.7 were obtained for the NBD-TM probe. All the probes produced the Z’ values compatible with HTS applications.
# The Z’ factor is a dimensionless coefficient and was calculated on the basis of data presented in Fig. 3 according to the equation below (Eq. 5)[57].5 Z^′=1-3S.D.control+-3S.D.control -/meancontrol +-meancontrol -, where S.D.control+ and S.D.control- are the standard deviation values, and meancontrol+ and meancontrol- are the mean values for the positive and negative control, respectively. The value of Z ' above 0.5 means good quality of the assay. The higher value of Z ' parameter means the better quality of the assay. This parameter cannot reach value higher than 1.
# [3] = Stability of probe stock solutions; format: physicochemical; conditions: stock in acetonitrile or water/acetonitrile (1:1 v/v), 6 °C in the dark
# Procedure: In the case of FLBA and APF, the two millimolar probe solutions were prepared in the water/acetonitrile mixture (1:1 v/v).
# [4] = target: T1, MPO; conditions: read-out: Azide anion IC50, MPO 1.2 nM, H2O2 10 µM, pH 7.4
# Procedure: (§3) Mixtures contained MPO (1.2 nM), H2O2 (10 µM), NaCl (0.1 M), phosphate buffer (50 mM, pH 7.4), and the appropriate probe (20 µM). […] In the calculations the initial rates of probes oxidation were used. (Data are means ± standard deviation of three independent experiments).
# MPO from human neutrophils was obtained from Athens Research and Technology (Athens, GA, According to the Certificate of Origin, the material used has been obtained from an FDA licensed collection center. Further the donors has given by signature full informed consent for the material to be used in commercial scientific research). […] Fluorescent probes were synthetized according to the procedures described in the literature. The synthesis of fluorescein pinacol boron ester (Fl-B) was performed based on the procedures published by Dickinson et al. and Rios et al.[58],[59]. The obtained boronate was then hydrolyzed to fluorescein boronic acid (FLBA). The synthesis of APF was performed based on the procedure published by Setsukinai and cooworkers. […] The detailed description of synthetic procedures can be found in the Supplementary Information. The CBA synthesis is described elsewhere[37],[61].
# The lyophilized powder of MPO was dissolved in distilled water accordingly to the supplier recommendation and, if required, stored at 6 °C by the day of analysis. Such prepared solution was then diluted with phosphate buffer, pH 7.4, to the appropriate concentration and the volume of 0.5–2 µL/well depending on the activity was pipetted directly to 96-well plate (Costar 3840). […] Reactions were stared adding 100 µl/well of 20 µM hydrogen peroxide solution.
# [5] = target: T1, MPO; conditions: read-out: recommended average IC50 value; average of CBA, FLBA and NBD-TM probes
# Procedure: as §3
# [6] = Stability of fluorophores in the MPO/H2O2/Cl- system; format: physicochemical; conditions: fluorophore 5 µM, MPO 1.2 nM, H2O2 10 µM, NaCl 0.1 M, pH 7.4
# Procedure: To check the stability of the COH, FL, and NBD-TSO fluorescence signal under the oxidizing conditions of MPO/H2O2/Cl^–, the fluorophores were incubated under the same reaction conditions, as described above for the five probes used in the study (Supplementary Figure S1). […] Overall, the fluorophores formed from the probes used may undergo consumption in the presence of MPO, H2O2 and Cl^–, due to their reaction with HOCl and/or via peroxidatic activity of MPO in the absence of Cl^–. This is, however, expected to occur only under the condition of excess of the oxidants (H2O2 and/or HOCl), as evidenced by the stable fluorescence signals of the products observed within 1 h of incubation (Fig. 3). The experimental design for monitoring HOCl involving probes producing such fluorophores should, therefore, take into account potential consumption of the fluorescent product, when the amount of the oxidant exceeds the probe availability.
# as §1, §2
# Supplementary Figure S2. The relationship used to determine the rate constant between APF and HOCl (a), or […] and HOCl (b), according to the competition kinetic approach. The solid lines in the panel (a) and (b) represent the linear fittings to the equation
# 1 = 1 + 1 kAPC/or APF [APC/orAPF]. In the case of reaction between […]
# (2kFLBA+HOCl = 1,11 × 104 M-1s-1). In the case of APF, the samples contained APF (0 – 100 µM), HOCl (5 µM), and CBA (25 µM) as a reference compound (2kCBA+HOCl = 1,80 × 104 M-1s-1). The concentrations of COH and fluorescein were determined by LC/MS. […]
# [7] = cited from earlier work
# [8] = Effect of DMSO on HOCl-induced probe oxidation; format: physicochemical; conditions: 20 µM probe, 10 µM HOCl, pH 7.4
# Text: DMSO is a solvent well tolerated by cells and it is often used to dissolve organic compounds intended for cell culture studies. Most chemical libraries for HTS applications use DMSO as the solvent. However, DMSO reacts directly with HOCl with a second-order rate constant of 350 ± 40 M^−1s^−1 and it has been shown that it may interfere with oxidation of boronate probes by HOCl[49]. Thus, the influence of DMSO additive on the observed fluorescence signal generated in the reaction between HOCl and the studied probes was evaluated. In this experiment, the incubation mixtures contained the chosen probe (20 µM), phosphate buffer (50 mM, pH 7.4), and DMSO in the amounts between 0–5% v/v (0–0.7 M). The reaction with HOCl was initiated by the bolus addition of 1 mM sodium hypochlorite to obtain the final HOCl concentration of 10 µM. In the case of NBD-TM that reacts rapidly and stoichiometrically (1:1 ratio) with HOCl[44] about 10 µM of NBD-TSO was formed (Fig. 6). […] The presence of 0.5% v/v (0.07 M) or higher concentrations of DMSO was sufficient to completely scavenge HOCl and block the fluorescence increase.
# Incubation mixtures contained 20 µM of a probe, 10 µM HOCl, 0–5% v/v (0–0.7 M) DMSO, and 50 mM phosphate buffer (pH 7.4). (Representative result of three independent experiments is shown. Points represent means ± S.D.)
compound,measurement,setting,value
7-(p-aminophenyl)-coumarin [APC],rate constant with HOCl by competition kinetics compared with stopped-flow value,[1],nearly identical rate constants
same,Z' value,[2],around 0.9
"Nc1ccc(Oc2ccc3c(-c4ccccc4C(=O)O)c4ccc(=O)cc-4oc3c2)cc1 [APF, 3’-(p-aminophenyl)-fluorescein]",rate constant with HOCl by competition kinetics compared with stopped-flow value,[1],nearly identical rate constants
same,stability of stock solution,[3],stable at least one-month
same,Z' value,[2],around 0.9
"[N-]=[N+]=[N-] [Azide anion, sodium azide]",IC50,"[4]; APC probe 20 µM, NaCl 0.1 M",1940 nM
same,IC50,"[4]; APF probe 20 µM, NaCl 0.1 M",2370 nM
same,IC50,"[4]; Amplex Red 20 µM, no NaCl",1040 nM
same,IC50,"[4]; Amplex Red 20 µM, no NaCl, listed as N3^–",1000 nM
same,IC50,"[4]; CBA probe 20 µM, NaCl 0.1 M",810 nM
same,IC50,"[4]; FLBA probe 20 µM, NaCl 0.1 M",540 nM
same,IC50,"[4]; NBD-TM probe 20 µM, NaCl 0.1 M",630 nM
same,IC50,[5],700 nM
"O=c1ccc2ccc(B(O)O)cc2o1 [CBA, coumarin boronic acid]",stability of stock solution,[3],stable at least one-month
same,Z' value,[2],around 0.9
"O=c1ccc2ccc(O)cc2o1 [COH, 7-hydroxycoumarin]",stability of the fluorescence signal,[6],decreasing with the time of incubation
C[S+](C)[O-] [DMSO],second-order rate constant of the reaction with HOCl,[7],350 ± 40 M⁻¹ s⁻¹
"O=C(O)c1ccccc1-c1c2ccc(=O)cc-2oc2cc(B(O)O)ccc12 [FLBA, fluorescein boronic acid]",stability of stock solution,[3],stable at least one-month
same,Z' value,[2],around 0.9
CSCC[C@H](N)C(=O)O [L-methionine],reaction rate constant with HOCl (^2k),[7],3.4e+07 M⁻¹ s⁻¹
"O=[N+]([O-])c1ccc(N2CCSCC2)c2nonc12 [NBD-TM, 4-thiomorpholino-7-nitrobenz-2-oxa-1,3-diazole]",decrease of NBD-TSO concentration by DMSO,[8]; 0.5% (0.07 M) DMSO,about 5%
same,decrease of NBD-TSO concentration by DMSO,[8]; 1% (0.14 M) DMSO,about 10%
same,decrease of NBD-TSO concentration by DMSO,[8]; 5% (0.7 M) DMSO,~35%
same,Z' value,[2],around 0.7
O=[N+]([O-])c1ccc(N2CC[S+]([O-])CC2)c2nonc12 [NBD-TSO],stability of the fluorescence signal,[6],slowly decomposing or precipitated during the time of incubation
O=C1OC2(c3ccc(O)cc3Oc3cc(O)ccc32)c2ccccc21 [fluorescein],stability of the fluorescence signal,[6],a slight decrease in the fluorescence intensity
